Some test systems named below: A498; DU-145; HCC 2998; HL-60; Hs-578T; MCF7; MDA-MB-435; RPMI-8226; SNB-19; SR; DLD-1; HOP-92; KM-20L2; M19-MEL; SNB-78; 786-0; COLO 205; NCI/ADR-RES; DMS-114; DMS-273.
Holding throughout (test): NCI-60 cell line screen, 48 h

The structures appear in SMILES notation.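 1) Cells in 96-well plates. 2) Compound, 48 h, 5 concentrations. 3) Linear interpolation between surrounding doses. 4) Unreached endpoint = highest concentration. At the GI50, growth is halved.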 Active and inactive are the calls of the source. No stated cut-off is given here; in the data, active = GI50 up to about 1.1 µM and inactive = higher. Some results are limits rather than exact numbers.

Regarding `CCC(=O)NC(OCC1(CC)COC1)(C(F)(F)F)C(F)(F)F`, the GI50 in the assay with A498, in the assay with DU-145, in the assay on HCC 2998, in the assay on HL-60, with Hs-578T and in the assay with MCF7 was > 100 µM (inactive) in each case. Further, the GI50 with MDA-MB-435, in the assay on RPMI-8226, in the assay with SNB-19 and in the assay on SR was > 100 µM (inactive) throughout.
`OCc1nnn2c1CCC2`: the GI50 in the assay on DLD-1, in the assay with HCC 2998, with HL-60, with HOP-92, in the assay with KM-20L2 and in the assay on M19-MEL was > 100 µM (inactive) throughout. Also, the GI50 with SNB-78 and in the assay with SR was > 100 µM (inactive) throughout.
As to `CC1=NN(C(=O)c2ccc(Cl)cc2)C(=O)C1/N=N/c1ccc(S(=O)(=O)Nc2ncccn2)cc1` (configuration not stated), the GI50 in the assay with 786-0 was > 100 µM (inactive); in the assay on COLO 205 it was > 100 µM (inactive); with DU-145, > 100 µM (inactive); with HL-60, > 100 µM (inactive); in the assay on HOP-92 it was < 0.01 µM (active); with Hs-578T, > 100 µM (inactive). The GI50 in the assay with MCF7, in the assay with MDA-MB-435, in the assay with NCI/ADR-RES, in the assay with SNB-19 and with SR was > 100 µM (inactive) throughout.
On to `CN1C(=O)CN2C(Cl)(Cl)C2(c2ccccc2)c2cc(Cl)ccc21` (configuration not stated), for which the GI50 in the assay on COLO 205 was > 100 µM (inactive); with DLD-1, 93.5 µM (inactive); in the assay with DMS-114, > 100 µM (inactive); in the assay with DMS-273, 87.7 µM (inactive); with HCC 2998, 65.3 µM (inactive); in the assay on HOP-92, 13.5 µM (inactive). For the same molecule, the GI50 in the assay with KM-20L2 was > 100 µM (inactive); with M19-MEL, > 100 µM (inactive); in the assay on RPMI-8226, > 100 µM (inactive); with SR, > 10 µM (inactive).
In the case of `Cc1c(N2C(=O)CS(=O)(=O)C2c2cccc(Oc3ccccc3)c2)c(=O)n(-c2ccccc2)n1C` (configuration not stated), the GI50 is < 0.01 µM (active) in the assay on A498; 28 µM (inactive) in the assay with COLO 205; 71.6 µM (inactive) with DU-145; 14.1 µM (inactive) in the assay with HL-60; 44.2 µM (inactive) with HOP-92; 30.9 µM (inactive) with Hs-578T. Also, the GI50 was 36.9 µM (inactive) in the assay with MCF7; 36.9 µM (inactive) in the assay with MDA-MB-435; 61.2 µM (inactive) in the assay on NCI/ADR-RES; 27.2 µM (inactive) in the assay on RPMI-8226; > 100 µM (inactive) in the assay on SNB-19.
For `S=c1nc(Nc2ccc(Br)cc2)c2c3c(sc2[nH]1)CN(N1CCc2c(sc4[nH]c(=S)nc(Nc5ccc(Br)cc5)c24)C1)CC3`, the GI50 in the assay on 786-0 is 8.13 µM (inactive); with A498, 11.3 µM (inactive); in the assay on COLO 205 it was 23.6 µM (inactive); in the assay on DU-145, 33.7 µM (inactive); in the assay on HCC 2998, 23.1 µM (inactive); in the assay with HL-60 it was 17.6 µM (inactive). In addition, the GI50 in the assay on Hs-578T was > 50 µM (inactive); with MCF7 it was 20.3 µM (inactive); with MDA-MB-435 it was 15.2 µM (inactive); in the assay on NCI/ADR-RES, > 50 µM (inactive); in the assay with RPMI-8226, 19.2 µM (inactive); in the assay on SNB-19, 22.5 µM (inactive). In the assay on SR, the GI50 is 27.5 µM (inactive).
Turning to `CCCO[C@@H]1[C@@H](OC(C)=O)[C@@H](OC(C)=O)C(C)(C)/C=C/[C@H](C)C(=O)[C@@]2(OC(C)=O)C[C@@](C)(OC(C)=O)[C@H](OC(C)=O)[C@@H]2[C@H]2OC(=O)CC[C@@]12OC(=O)c1ccccc1`, the GI50 with COLO 205 was 6.97 µM (inactive); with DU-145, > 25 µM (inactive); with HCC 2998 it was 18.5 µM (inactive); in the assay on HL-60, 2.64 µM (inactive); in the assay on HOP-92, > 25 µM (inactive); in the assay on Hs-578T it was 12.1 µM (inactive). The GI50 in the assay on MCF7 is 23.6 µM (inactive); in the assay with MDA-MB-435, 15.2 µM (inactive); in the assay on NCI/ADR-RES it was > 25 µM (inactive); in the assay on SNB-19 it was > 25 µM (inactive).
Turning to `COc1ccc2[nH]c(Cl)c(/C=C3/C(=O)Nc4cc(C)c(OC)cc43)c2c1`, the GI50 with 786-0 was 5.68 µM (inactive); in the assay on A498, 5.82 µM (inactive); in the assay on COLO 205 it was 2.02 µM (inactive); with DU-145, 14.3 µM (inactive); in the assay with HCC 2998, 4.89 µM (inactive); in the assay on HL-60, 1.91 µM (inactive). In addition, the GI50 is 11.7 µM (inactive) in the assay with HOP-92; 3.81 µM (inactive) in the assay with Hs-578T; 3.8 µM (inactive) with MCF7; 1.23 µM (inactive) with MDA-MB-435; 2.44 µM (inactive) in the assay with NCI/ADR-RES; 4.32 µM (inactive) with RPMI-8226. Moreover, the GI50 in the assay on SNB-19 is 8.26 µM (inactive); in the assay on SR, 3.08 µM (inactive).
In the case of `C1#Cc2ccccc2OCCOc2ccccc2C#Cc2ccccc2OCCOc2ccccc21`, the GI50 in the assay on 786-0 is 10.3 µM (inactive); in the assay on A498, 17.3 µM (inactive); in the assay with COLO 205 it was 30.1 µM (inactive); in the assay with DU-145, > 100 µM (inactive); in the assay with HL-60, 61.2 µM (inactive); in the assay with Hs-578T, 22.5 µM (inactive). For the same molecule, the GI50 is > 100 µM (inactive) in the assay with MCF7; > 100 µM (inactive) in the assay with MDA-MB-435; 29.4 µM (inactive) in the assay with NCI/ADR-RES; 16.4 µM (inactive) in the assay with RPMI-8226; 25.9 µM (inactive) in the assay with SNB-19.
As to `Cc1cc(C)c2c(n1)S(=O)(=O)N(CCCN1CCN(c3cccc(C(F)(F)F)c3)CC1)C(C(=O)c1ccccc1)=C2O`, the GI50 in the assay on 786-0 is 4.48 µM (inactive); in the assay on A498, 8.57 µM (inactive); with COLO 205 it was 3.31 µM (inactive); in the assay on DU-145, 13.4 µM (inactive); in the assay on HL-60, 2.61 µM (inactive); in the assay with HOP-92 it was 5.19 µM (inactive). Besides, the GI50 in the assay on Hs-578T was 17.6 µM (inactive); in the assay with MCF7 it was 7.13 µM (inactive); in the assay on MDA-MB-435, 6.11 µM (inactive); in the assay on NCI/ADR-RES, 3.21 µM (inactive); in the assay with SNB-19, 5.53 µM (inactive); in the assay on SR, 2.93 µM (inactive).
In the case of `CN(C)C(=S)/N=c1\ss/c(=N\S(=O)(=O)c2ccccc2)n1-c1ccccc1`, the GI50 in the assay on 786-0 was 30.4 µM (inactive); with A498, 50.9 µM (inactive); in the assay with DLD-1, 13.5 µM (inactive); in the assay on DMS-114, 2.08 µM (inactive); in the assay with DMS-273, 12.9 µM (inactive); with HCC 2998 it was 38.8 µM (inactive). Besides, the GI50 in the assay with HL-60 is 4.33 µM (inactive); with HOP-92, 14.7 µM (inactive); in the assay with M19-MEL, 19.4 µM (inactive); in the assay with RPMI-8226, 0.344 µM (active); with SNB-78, 29 µM (inactive).
Consider `CCN(CC)CCNCc1cc(Cl)cc2c1OCOC2`, for which the GI50 with A498, in the assay with COLO 205, in the assay with DU-145, in the assay on HCC 2998, with HL-60 and in the assay on Hs-578T was > 10 µM (inactive) in each case. Further, the GI50 with MCF7, in the assay on MDA-MB-435, with NCI/ADR-RES, in the assay with RPMI-8226, with SNB-19 and in the assay on SR was > 10 µM (inactive) each time.
In the case of `O=c1cnn(CCOCP(=O)(O)O)c(=O)[nH]1`, the GI50 in the assay with A498, in the assay on COLO 205, in the assay on DU-145, with HCC 2998, in the assay with HOP-92 and with Hs-578T was > 100 µM (inactive) each time. For the same molecule, the GI50 in the assay on MCF7, in the assay with MDA-MB-435, with NCI/ADR-RES, in the assay on RPMI-8226 and in the assay on SNB-19 was > 100 µM (inactive) each time.
`COc1ccc(C2C(N)=NCC2c2ccccn2)cc1` (configuration not stated): the GI50 with 786-0, with A498, in the assay on COLO 205, in the assay with DLD-1, in the assay with DMS-114 and with HCC 2998 was > 100 µM (inactive) in each case. The GI50 in the assay with HOP-92, with KM-20L2, with M19-MEL, in the assay with RPMI-8226, with SNB-19 and in the assay on SNB-78 was > 100 µM (inactive) in each case. Further, the GI50 in the assay with SR is > 100 µM (inactive).
`CN(C)c1ccc(/C=N/c2ccc(Oc3ccc(Cl)cc3)c(Cl)c2)cc1`: the GI50 in the assay on COLO 205 is 22.1 µM (inactive); in the assay on DU-145, 27.5 µM (inactive); in the assay on HCC 2998, 17.7 µM (inactive); with HL-60, 11.7 µM (inactive); with HOP-92, 18.2 µM (inactive); in the assay on Hs-578T, 15.4 µM (inactive). The GI50 is 42.7 µM (inactive) with MCF7; 24.2 µM (inactive) in the assay with MDA-MB-435; 16.2 µM (inactive) in the assay with NCI/ADR-RES; 11.4 µM (inactive) in the assay on RPMI-8226; 16.4 µM (inactive) in the assay on SNB-19; 10.9 µM (inactive) with SR.
As to `COc1ccc(CC/N=C2\CCC(C(=O)NCCc3ccc(OC)c(OC)c3)N2)cc1OC` (configuration not stated), the GI50 in the assay with 786-0, in the assay with A498, in the assay with COLO 205, with DLD-1, with DMS-114 and with DMS-273 was > 100 µM (inactive) in each case. Further, the GI50 in the assay on HCC 2998, in the assay on HL-60, with HOP-92, in the assay on KM-20L2, with RPMI-8226 and with SNB-19 was > 100 µM (inactive) each time. Further, the GI50 in the assay with SNB-78 was > 100 µM (inactive).

These data come from ChEMBL document CHEMBL1201862, “PubChem BioAssay data set” (2004).
